One experiment relates to HT-29. Nature of the experiment: In vitro tumor cell cytotoxicity (MTT colorimetric growth inhibition). The following applies: Homo sapiens. It counts as cell-based. The protocol:
(§1) The compounds of the present invention were tested for in vitro cytotoxic activity against the tumor lines A549 […], HT-29 […], B16F10 (mouse melanoma) and P-388 (mouse leukemia). Concentrations of 50% growth inhibition (IC50 's) were measured in a colorimetric assay for cytotoxic activity against cultured cells according to the protocol described below:
(§2) A three-day microtiter assay was used to measure the growth inhibition of cultured cells exposed to a range of drug concentrations. Metabolic activity, and thus the continued survival of cells exposed to the test compounds, was measured by the cells' ability to reduce the tetrazolium dye, MTT (3-(4,5-dimethyl-thiazol-2-yl-2,5-diphenyltetrazolium bromide) to a quantifiable colored end product, which absorbs at 570 nm in the visible spectrum.
(§3) Test compounds were dissolved in dimethyl sulfoxide (DMSO) and diluted, first with Earle's Balanced Salt Solution followed by culture medium, to twice the highest concentration of compound to be tested. From this concentrated stock, twofold serial dilutions were prepared in 96-well microtiter trays, each well containing twice the desired final concentration of compound. Each concentration was tested in triplicate and compared to triplicate drug-free controls.
(§4) The cells were grown in the same medium used for diluting the compounds and then harvested using trypsinization. This involved removing the medium by aspiration; rinsing the cell monolayer twice with Earle's Balanced Salt Solution; adding trypsin (0.05%)/EDTA (0.53 mM; for each 25 cm^2, approximately 0.2 mL), tilting to cover the monolayer, and then withdrawing trypsin leaving only a thin film of solution; incubating at room temperature until the cell monolayers detached (as determined by visual and/or microscopic observation); adding medium containing fetal calf serum to stop the action of the trypsin and resuspend the cells; triturating to aid dissociation of cell clumps; and determining the number of cells per milliliter by electronic cell counter (e.g. Coulter Counter) or by mixing an aliquot of cell suspension with Trypan Blue (0.4% in normal saline) and counting the viable cells using a hemacytometer.
(§5) After harvesting and determination of viable cell counts, cell density was adjusted to 25,000 cells/mL. Inoculum (0.1 mL) containing the cells was then added to each well for a final concentration of 2,500 cells per well. Addition of the inoculum diluted the test compounds to the desired final concentration.
(§6) Microtiter trays were then incubated for three days at 36 ° C. in a humidified atmosphere containing 5% carbon dioxide. After three days, 20 microtiters of 5 mg/mL MTT in phosphate-buffered saline solution were added to each well. Trays were returned to the incubator for two to four hours to allow the surviving cells to reduce the dye. Medium and unreduced dye were removed by aspiration. DMSO was added to each well to dissolve the water-insoluble, colored end product of the dye reduction so that it could be measured spectrophotometrically at 570 nm. The IC50 was determined as the concentration of compound tested required to reduce the absorbance at 570 nm to 50% of non-drug treated control values.

Another experiment deals with A549. The description is as above. It counts as cell-based. The conditions noted are these: Homo sapiens. How it is done:
as §1, §2, §3, §4, §5, §6

Another experiment concerns B16F10. The description is as above. The class given is cell-based, mouse. The following applies: B16-F10, 72 h. How it is done: as §1, §2, §3, §4, §5, §6
A further experiment has as its system P388. Described as above. It counts as cell-based, mouse. The conditions noted are these: P388, 72 h. How it is done: as §1, §2, §3, §4, §5, §6
For experiment [1], the system named is advanced breast and ovarian cancers. The conditions noted are these: cited from earlier work.
Experiment [2] relates to a number of other tumor types. The conditions noted are these: preliminary investigations; cited from earlier work.

The text below walks through data of US5468769A, “Paclitaxel derivatives” (Abbott Laboratories, priority 1993, dated 1995).

SMILES strings stand for the structures. In brackets after ≈: the same amount, converted by molar mass. Read-outs that look alike come from different tables or passages of the source.

Take `CC(=O)O[C@@H]1C2=C(C)[C@@H](OC(=O)[C@H](O)[C@@H](NC(=O)c3ccccc3)c3ccccc3)C[C@@](O)([C@@H](OC(=O)c3ccccc3)[C@@H]3[C@]4(OC(C)=O)CO[C@@H]4C[C@H](C)[C@@]13C=O)C2(C)C` [Example 4, β-Benzoylamino-α-hydroxybenzenepropanoic acid 4,9-bis(acetyloxy)-2-benzoyloxy-8-formyl-1.2.3.4.5.6.7.8.10.13.14-undecahydro-1-hydroxy-7.14.14.17-tetramethyl-1.10-m,ethano-20H-cyclonona[2.3]benz[1.2-b]oxet-12-yl ester]: the IC50 with HT-29 (HT-29, 72 h) worked out at 76 ng/mL (≈ 0.0907 µM); in the experiment on A549 (A549, 72 h), 17 ng/mL (≈ 0.0203 µM); in the experiment on B16F10 (Mus musculus), 45 ng/mL (≈ 0.0537 µM); with P388 (Mus musculus) it was 32 ng/mL (≈ 0.0382 µM).
Consider `CC(=O)O[C@H]1C(=O)[C@@]2(C)[C@H]([C@H](OC(=O)c3ccccc3)[C@]3(O)C[C@H](OC(=O)[C@H](O)[C@@H](NC(=O)c4ccccc4)c4ccccc4)C(C)=C1C3(C)C)[C@]1(OC(C)=O)CO[C@@H]1C[C@@H]2O` [Paclitaxol, Paclitaxel], for which, in experiment [1], the “effectiveness in clinical trials” value is “effective against advanced breast and ovarian cancers”. Besides, the IC50 is 2.5 ng/mL (≈ 0.00293 µM) in the experiment with HT-29 (HT-29, 72 h); 3.4 ng/mL (≈ 0.00398 µM) in the experiment with A549 (A549, 72 h); 3.1 ng/mL (≈ 0.00363 µM) in the experiment on B16F10 (Mus musculus); 9.6 ng/mL (≈ 0.0112 µM) in the experiment on P388 (Mus musculus). In addition, the “activity against other tumor types” value in experiment [2] is given as “promising activity against a number of other tumor types”.
As to `CC(=O)O[C@@H]1C2=C(C)[C@@H](OC(=O)[C@H](O)[C@@H](NC(=O)OC(C)(C)C)c3ccccc3)C[C@@](O)([C@@H](OC(=O)c3ccccc3)[C@@H]3[C@]4(OC(C)=O)CO[C@@H]4C[C@H](C)[C@@]13C=O)C2(C)C` [Example 3, 8-tert-Butyloxycarbonylamino-α-hydroxybenzenepropanoic acid 4,9-bis(acetyloxy)-2-benzoyloxy-8-formyl-1.2.3.4.5.6.7.8.10.13.14-undecahydro-1-hydroxy-7.14.14.17-tetramethyl-1.10-methano-20H-cyclonona[2.3]benz[1.2.b]oxet-12-yl ester], the IC50 in the experiment on HT-29 (72 h, HT-29, three-day microtiter assay, MTT, 570 nm, read-out: IC50) was 5.4 ng/mL (≈ 0.00648 µM); in the experiment with A549 (72 h, A549, three-day microtiter assay, MTT, 570 nm, read-out: IC50) it was 9.8 ng/mL (≈ 0.0118 µM); in the experiment with B16F10 (B16F10 (mouse melanoma), three-day microtiter assay, MTT, 570 nm, read-out: IC50), 4.6 ng/mL (≈ 0.00552 µM); in the experiment with P388 (P-388 (mouse leukemia), three-day microtiter assay, MTT, 570 nm, read-out: IC50), 8.3 ng/mL (≈ 0.00995 µM).

One may read the IC50 as the concentration that inhibits the measured activity by half.
